Results on 14 compounds are retold here after PubChem BioAssay (NCI).

Molecules are shown by their SMILES.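 Dose response: 5 concentrations. Exposure: 48 h. Format: 96-well plates. Endpoint: linear interpolation; highest concentration if not reached. GI50 = concentration required for 50% inhibition of growth. TGI marks complete inhibition of growth.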 Where only a bound is given, the exact number is not on record here.

Test systems include SK-MEL-5 melanoma; 786-0 renal; CAKI-1 renal; A498 renal; HT29 colon; DU-145 prostate; M14 melanoma; UACC-257 melanoma; HCC-2998 colon; OVCAR-4 ovarian.
What all share (test): growth of human tumour cells (NCI), 48 h

For `C/C=C(\C)c1cc(=O)c2c(C)cc3c(c2o1)C(OC)(OC(C)=O)c1c(O)c(C2CC(C)(N(C)C)C(OC(C)=O)C(C)O2)cc(C2CC(N(C)C)C(OC(C)=O)C(C)O2)c1C3=O` (stereo unspecified), the TGI in the test on SK-MEL-5 melanoma is above 100 µM; in the test with 786-0 renal it was above 21.4 µM; in the test on CAKI-1 renal it was 9.39 µM; with A498 renal, 3.49 µM; in the test with HT29 colon it was above 20.4 µM; with DU-145 prostate, 5.08 µM.

Take `CCC(C)C(=O)O[C@H]1C(=O)O[C@@H]2C[C@H]3C(C)=CC(=O)[C@@H](O)[C@]3(C)[C@H]3[C@@H](O)[C@H](O)[C@@]4(C)OC[C@]32[C@@H]14` (stereo partly specified): the TGI in the test on SK-MEL-5 melanoma was below 0.0338 µM; in the test with M14 melanoma it was below 0.0216 µM; in the test with 786-0 renal, 0.645 µM; in the test with UACC-257 melanoma, below 0.01 µM; in the test on HCC-2998 colon, below 0.024 µM; in the test on OVCAR-4 ovarian it was below 0.01 µM. Besides, the values for the TGI in the test on A498 renal, in the test with HT29 colon and with DU-145 prostate were below 0.01 µM, 0.0272 µM and below 0.0164 µM, respectively.

With `Cc1cc(O[C@@H]2O[C@@H](C)[C@H](O)[C@@H](O)[C@H]2O)c2c3c(c(O[C@@H]4O[C@@H](C)[C@H](O)[C@@H](O)[C@H]4O)cc2c1)C(=O)c1c(O)cccc1C3=O`, the GI50 is above 30000 nM in the test on SK-MEL-5 melanoma; above 30 µM in the test on M14 melanoma; above 30 µM in the test with 786-0 renal; above 30 µM in the test with UACC-257 melanoma; above 30 µM in the test on HCC-2998 colon; above 30 µM with OVCAR-4 ovarian. Also, the GI50 with A498 renal is above 30 µM; in the test on HT29 colon it was above 30000 nM; in the test with DU-145 prostate, above 30 µM. Also, the TGI in the test with SK-MEL-5 melanoma, with M14 melanoma, in the test with 786-0 renal, in the test with UACC-257 melanoma, in the test with HCC-2998 colon and in the test with OVCAR-4 ovarian was above 30 µM each time. Moreover, the TGI in the test on A498 renal, in the test on HT29 colon and in the test with DU-145 prostate was above 30 µM each time.

Consider `COc1ccc(C2=NN(C=O)C(c3ccc(OS(=O)(=O)c4ccc(C)cc4)c(OC)c3)C2)cc1` (stereo unspecified), for which the GI50 in the test with M14 melanoma was 3.92 µM; with 786-0 renal, 21.6 µM; in the test on UACC-257 melanoma, 4.22 µM; in the test with CAKI-1 renal it was 5.35 µM; with HCC-2998 colon, above 100 µM; in the test on A498 renal, 1.81 µM. For the same compound, in the test with DU-145 prostate, the GI50 is 74.9 µM. The TGI in the test on M14 melanoma, with 786-0 renal, with UACC-257 melanoma, with CAKI-1 renal, with HCC-2998 colon and with A498 renal was above 100 µM in each case. Further, in the test with DU-145 prostate, the TGI was above 100 µM.

Turning to `O=C1Nc2ccc(O)cc2/C1=C\c1ccncc1`, the GI50 with SK-MEL-5 melanoma is 15500 nM; in the test with M14 melanoma, 15.8 µM; in the test on 786-0 renal, 18.5 µM; with UACC-257 melanoma, 13.2 µM; in the test with CAKI-1 renal, 17.9 µM; in the test with A498 renal, 30.5 µM. The GI50 in the test with DU-145 prostate is 19.5 µM. For the same compound, the TGI was determined as 38.1 µM in the test with SK-MEL-5 melanoma; 39.6 µM in the test on M14 melanoma; 39 µM with 786-0 renal; 33.3 µM with UACC-257 melanoma; 54.2 µM with CAKI-1 renal; 49.9 µM in the test on A498 renal. In the test on DU-145 prostate, the TGI came to 54.2 µM.

As for `CCC1(OC(=O)CNC)C(=O)OCc2c1cc1n(c2=O)Cc2cc3ccccc3nc2-1` (stereo unspecified), the TGI with SK-MEL-5 melanoma was found to be 0.0337 µM; in the test on M14 melanoma, 1.27 µM; in the test on 786-0 renal, 0.0152 µM; with UACC-257 melanoma, 0.762 µM; with HCC-2998 colon, 1.57 µM; with OVCAR-4 ovarian it was 0.493 µM. Also, the TGI in the test on A498 renal was determined as 0.104 µM; with HT29 colon, 2.64 µM; in the test with DU-145 prostate, 0.0124 µM.

Take `c1ccc(COCC[P+](c2ccccc2)(c2ccccc2)c2ccccc2)cc1`: the GI50 was 396 nM with SK-MEL-5 melanoma; 2.12 µM in the test with M14 melanoma; 3.49 µM in the test with 786-0 renal; 0.378 µM in the test with UACC-257 melanoma; 5.4 µM in the test with CAKI-1 renal; 0.444 µM in the test with OVCAR-4 ovarian. For the same compound, the values for the GI50 with A498 renal, with HT29 colon and in the test on DU-145 prostate were 1.33 µM, 478 nM and 2.01 µM, respectively. For the same compound, the TGI with SK-MEL-5 melanoma amounted to 1.61 µM; in the test on M14 melanoma, 13.4 µM; with 786-0 renal, 15.6 µM; in the test with UACC-257 melanoma, 3.77 µM; in the test on CAKI-1 renal, 23.1 µM; in the test on OVCAR-4 ovarian, 12.2 µM. Besides, the TGI in the test on A498 renal stood at 5.93 µM; in the test with HT29 colon, 8.3 µM; in the test on DU-145 prostate, 26.2 µM.

With `COc1ccc(NC(=S)C#N)cc1`, the TGI in the test on SK-MEL-5 melanoma, with M14 melanoma, in the test on 786-0 renal, in the test with UACC-257 melanoma, with CAKI-1 renal and with HCC-2998 colon was above 100 µM in each case. Moreover, the TGI with A498 renal, in the test with HT29 colon and in the test with DU-145 prostate was above 100 µM in each case.

`O=C1CC(C(=O)O)Cc2c(Br)ccc(O)c21` (stereo unspecified): the TGI in the test with SK-MEL-5 melanoma, in the test on M14 melanoma, in the test on 786-0 renal, in the test on UACC-257 melanoma, in the test with CAKI-1 renal and with HCC-2998 colon was above 100 µM throughout. Further, the TGI with OVCAR-4 ovarian, in the test with HT29 colon and in the test on DU-145 prostate was above 100 µM each time.

As to `O=C(COc1cccc(/C=C2\COc3ccccc3C2=O)c1)c1ccccc1`, the GI50 with SK-MEL-5 melanoma is 2830 nM; with M14 melanoma, 3.12 µM; in the test with 786-0 renal, 5.85 µM; in the test with UACC-257 melanoma, 6.03 µM; in the test on CAKI-1 renal, 3.32 µM; in the test on OVCAR-4 ovarian, 3.84 µM. In addition, the values for the GI50 with A498 renal, with HT29 colon and in the test on DU-145 prostate were 0.266 µM, 2040 nM and 6.11 µM, respectively. The TGI with SK-MEL-5 melanoma is 7.63 µM; in the test with M14 melanoma, 14 µM; with 786-0 renal, 19 µM; in the test on UACC-257 melanoma, 18.6 µM; with CAKI-1 renal it was 12.7 µM; in the test on OVCAR-4 ovarian, 15.4 µM. Moreover, the TGI is 6.78 µM in the test on A498 renal, 4.5 µM in the test with HT29 colon and 17.4 µM with DU-145 prostate.

For `Cc1ccc(/C=C(/C#N)n2nnc3ncccc32)cc1`, the GI50 in the test on SK-MEL-5 melanoma was 2890 nM; in the test with M14 melanoma it was 2.89 µM; in the test with 786-0 renal it was 2.99 µM; in the test with UACC-257 melanoma, 4.24 µM; with HCC-2998 colon it was 3.37 µM; with OVCAR-4 ovarian it was 2.14 µM. For the same compound, the GI50 with A498 renal is 2.28 µM; with HT29 colon, 2080 nM; in the test with DU-145 prostate, 3.01 µM. Further, the TGI in the test with SK-MEL-5 melanoma is 12.8 µM; in the test on M14 melanoma it was 17.7 µM; in the test with 786-0 renal, 16.4 µM; in the test with UACC-257 melanoma, 22.2 µM; with HCC-2998 colon, 12.2 µM; in the test on OVCAR-4 ovarian, 15.8 µM. In addition, the TGI with A498 renal stood at 7.51 µM; in the test with HT29 colon it was 11.5 µM; in the test on DU-145 prostate, 13.7 µM.

With `CCSc1nc(NC(C)c2ccccc2)c2cnn(CO)c2n1` (stereo unspecified), the GI50 in the test with SK-MEL-5 melanoma is 3180 nM; in the test with M14 melanoma, above 100 µM; in the test on 786-0 renal, 59.9 µM; with UACC-257 melanoma, 6.91 µM; in the test on CAKI-1 renal, 0.135 µM; in the test with OVCAR-4 ovarian, 86.4 µM. For the same compound, the figures for the GI50 in the test with A498 renal, in the test with HT29 colon and in the test with DU-145 prostate were 27 µM, above 100000 nM and above 100 µM, respectively. Also, the TGI in the test with SK-MEL-5 melanoma is 25.9 µM; in the test on M14 melanoma, above 100 µM; in the test on 786-0 renal, above 100 µM; in the test on UACC-257 melanoma, above 100 µM; with CAKI-1 renal, 56.1 µM; with OVCAR-4 ovarian it was above 100 µM. Also, the TGI with A498 renal, with HT29 colon and in the test on DU-145 prostate was above 100 µM each time.

For the compound `CCNC(=O)Oc1ccc(/C(=C(\C)c2ccc(Cl)cc2)c2ccc(OCCN(CC)CC)cc2)cc1`, the GI50 in the test on SK-MEL-5 melanoma is 1750 nM; with M14 melanoma, 1.97 µM; with 786-0 renal, 1.76 µM; in the test with UACC-257 melanoma it was 2.11 µM; in the test on HCC-2998 colon, 4.39 µM; in the test with OVCAR-4 ovarian, 3.65 µM. The results for the GI50 in the test on A498 renal, in the test on HT29 colon and in the test with DU-145 prostate were 14.3 µM, 2520 nM and 11.1 µM, respectively. Besides, the TGI in the test on SK-MEL-5 melanoma is 3.15 µM; in the test with M14 melanoma, 3.97 µM; with 786-0 renal it was 3.42 µM; with UACC-257 melanoma, 4.36 µM; in the test on HCC-2998 colon it was 16.3 µM; in the test with OVCAR-4 ovarian, 17.3 µM. Further, the TGI was determined as 29.6 µM in the test on A498 renal, 6.44 µM with HT29 colon and 24.2 µM in the test with DU-145 prostate.

On to `C[C@@H]1CC[C@H]2[C@@H](C)C(OC/C=C/COC3O[C@@H]4O[C@@]5(C)CC[C@H]6[C@H](C)CC[C@@H]([C@H]3C)[C@@]46OO5)O[C@@H]3O[C@@]4(C)CC[C@@H]1[C@]32OO4` (stereo partly specified), for which the GI50 in the test on SK-MEL-5 melanoma was 49.1 nM; with M14 melanoma, 0.0265 µM; in the test with 786-0 renal, 0.0168 µM; in the test with UACC-257 melanoma it was 0.0401 µM; in the test with CAKI-1 renal, 0.046 µM; in the test on HCC-2998 colon, 0.0376 µM. Further, the GI50 in the test with A498 renal is 15.7 µM; with HT29 colon it was below 10 nM; in the test with DU-145 prostate, 30.5 µM. Also, the TGI with SK-MEL-5 melanoma is 18.6 µM; with M14 melanoma, 19.1 µM; with 786-0 renal, 18.6 µM; in the test with UACC-257 melanoma it was 48 µM; with CAKI-1 renal, 2.87 µM; in the test on HCC-2998 colon, 12.1 µM. Besides, the TGI in the test with A498 renal, in the test on HT29 colon and in the test with DU-145 prostate was above 100 µM throughout.
